The target of one assay is T1, AstC-R (Aplysia californica, UniProt A0ABM0JJJ7).
T1 sequence (A0ABM0JJJ7 1-425): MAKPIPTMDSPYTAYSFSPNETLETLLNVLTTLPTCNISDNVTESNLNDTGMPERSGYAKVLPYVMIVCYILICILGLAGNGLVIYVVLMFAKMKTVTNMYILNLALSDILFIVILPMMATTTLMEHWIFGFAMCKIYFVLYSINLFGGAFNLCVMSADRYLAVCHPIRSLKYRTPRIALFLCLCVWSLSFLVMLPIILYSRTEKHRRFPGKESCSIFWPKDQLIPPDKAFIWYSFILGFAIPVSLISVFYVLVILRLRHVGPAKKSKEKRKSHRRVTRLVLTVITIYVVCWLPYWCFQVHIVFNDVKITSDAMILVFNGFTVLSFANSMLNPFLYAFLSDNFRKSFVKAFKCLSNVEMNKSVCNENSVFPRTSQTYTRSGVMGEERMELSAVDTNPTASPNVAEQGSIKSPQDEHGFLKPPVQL
Put plainly: IP1 accumulation assay, CHO-K1 cells expressing putative receptor AstC-R. In kind it is cell-based. To be noted: for EC50: IP1 accumulation, CHO cells co-transfected with AstC-R and Gα16 plasmids, peptide 10^–12 M to 10^–4 M; for Screening: IP1 concentration on AstC-R at 10^–5 M vs 10^–10 M: CHO cells co-transfected with AstC-R and Gα16, 10^–10 M used as control, paired t-test, n = 6 (AstC' n = 5; AstCG-DP, SPTR n = 3); for IP1 response of AstC-R, preliminary experiments: CHO cells transfected with receptor plasmid only, without Gα16. The text has this:
Because Gα16 is a promiscuous Gαq protein that will bind to most GPCRs[10],[53], this procedure would ensure an IP1 response when a potential ligand binds to its GPCR.
Inositol monophosphate 1 (IP1) accumulation assay measures concentration of IP1, that is hydrolyzed from the second messenger, […] (IP3), generated by Gαq pathway when a G-protein coupled receptor (GPCR) expressed in CHO-K1 cells is activated by an appropriate ligand. In order to express the Aplysia putative receptors transiently in CHO-K1, the cDNA was cloned into the mammalian expression vector pcDNA3.1( +). […] Transfection experiments were performed when the cells were grown to 70–90% confluence. In preliminary experiments, for each dish (60-mm diameter), 4 μg of the putative receptor plasmids [in pcDNA3.1( +)] were mixed with 400 μl of Opti-MEM (Gibco, 11058021), followed by the addition of 15 μl of Turbofect (Thermo Fisher Scientific, R0531). […] The CHO cells with the reagents added above were mixed gently, and incubated at room temperature for 15 min. The DNA/Turbofect mixture dropwise was then added to the dish, and the cells were incubated at 37 °C in 5% CO2 overnight. The next day, the cells were trypsinized and reseeded in opaque white 96-well half-area (Corning, 3688) or 384-well tissue culture-treated plates (Corning, 3570) at a density of 20,000 cells/well in F-12K and 10% FBS and incubated at 37 °C in 5% CO2 overnight. On the third day, the activation of the putative receptor was detected by monitoring IP1 accumulation using IP1 detection kit (Cisbio, 62IPAPEB) in Tecan Spark. Except for using 0.5 × reagent, all other procedures were performed in accordance with the IP1 detection kit manufacturer’s instructions. Peptides are synthesized by Sangon Biotech, Guoping Pharmaceutical or ChinaPeptides (Supplementary Fig. 4), and are aliquoted in 50 nmol EP tubes, stored at −20 °C until use.

The test system of a further assay is Class-A_GPCR1. The assay can be described thus: IP1 accumulation assay, CHO-K1 cells expressing putative receptor Class-A_GPCR1 (control). In kind it is cell-based, Aplysia californica. The following applies: CHO cells transfected with receptor plasmid only, without Gα16. The text has this:
We cloned AstC-R and Class-A_GPCR1 into pcDNA3.1 plasmids, and expressed them in CHO cells. We then used the IP1 accumulation assay that detects IP1 generated in the Gαq pathway (see Methods) to determine whether our predicted Aplysia peptides (i.e., AstC or AstCG-DP) and other related peptides which we synthesized (see Fig. 7G) could activate the receptors. In preliminary experiments, we only transfected plasmids for a putative receptor in CHO cells. […] Thus, for all the experiments shown in Fig. 7, we co-transfected plasmids for the putative receptor and Gα16 plasmids in CHO cells. Because Gα16 is a promiscuous Gαq protein that will bind to most GPCRs[10],[53], this procedure would ensure an IP1 response when a potential ligand binds to its GPCR.
Inositol monophosphate 1 (IP1) accumulation assay measures concentration of IP1, that is hydrolyzed from the second messenger, […] (IP3), generated by Gαq pathway when a G-protein coupled receptor (GPCR) expressed in CHO-K1 cells is activated by an appropriate ligand. In order to express the Aplysia putative receptors transiently in CHO-K1, the cDNA was cloned into the mammalian expression vector pcDNA3.1( +). […] On the third day, the activation of the putative receptor was detected by monitoring IP1 accumulation using IP1 detection kit (Cisbio, 62IPAPEB) in Tecan Spark. […]

The next assay addresses Platynereis receptor. The following applies: annelid Platynereis dumerilii allatostatin C on its putative receptor; cited from earlier work. From the text:
Growing databases of the Aplysia genome and transcriptome are becoming available, but relatively few studies have taken advantage of this information (see[53],[54]). […] Previous bioinformatic studies in several molluscs predicted the presence of an allatostatin C precursor (Fig. 3, e.g.,[57]) and of AstC with the ...

The mark [1] stands for this setting: average EC50, n = 3, read-out: [EC50] on AstC-R.
Where [2] appears, read: average log[EC50], n = 3, read-out: log[EC50] on AstC-R (converted).

Where “and” joins values, the source holds several entries; their conditions need not be identical. Identical values can stand only once. Like-named read-outs stand apart in the source and are kept apart here. Where a SMILES comes first, the peptide text is derived from it. Bridges are numbered along the chain shown (N, C = ends).

The EC50 is the concentration needed to bring the measured effect to its halfway point. `CC[C@H](C)[C@H](NC(=O)[C@H](Cc1c[nH]cn1)NC(=O)[C@@H](N)CO)C(=O)N[C@@H](CCCNC(=N)N)C(=O)N[C@H]1CSSC[C@@H](C(=O)N[C@@H](Cc2ccc(O)cc2)C(=O)O)NC(=O)[C@H](C)NC(=O)[C@H]([C@@H](C)CC)NC(=O)[C@H](C(C)C)NC(=O)[C@H](CC(N)=O)NC(=O)[C@H](C(C)C)NC(=O)[C@H](CC(C)C)NC1=O` [AstC-C] (H-SHIRCLVNVIACY-OH; disulfide 5-12): the EC50 on AstC-R (setting [1]) was 111 nM.

For the compound `CSCC[C@H](NC(=O)[C@H](CO)NC(=O)[C@H](CO)NC(=O)[C@H](Cc1ccc(O)cc1)NC(=O)[C@@H](N)[C@@H](C)O)C(=O)N[C@H]1CSSC[C@@H](C(=O)N[C@@H](Cc2ccc(O)cc2)C(=O)O)NC(=O)[C@H](C)NC(=O)[C@H](C(C)C)NC(=O)[C@H](C(C)C)NC(=O)[C@H](CC(N)=O)NC(=O)[C@H](Cc2ccccc2)NC(=O)[C@H](CCSC)NC1=O` [AstC-D] (H-TYSSMCMFNVVACY-OH; disulfide 6-13), the EC50 at AstC-R (setting [1]) is 18.9 nM; on AstC-R (setting [2]), 15.8 nM.

For `CC[C@H](C)[C@@H]1NC(=O)[C@H](CC(C)C)NC(=O)[C@H](CC(N)=O)NC(=O)[C@H](C(C)C)NC(=O)[C@H](CC(C)C)NC(=O)[C@@H](NC(=O)[C@H](CCSC)NC(=O)[C@@H](NC(=O)[C@H](Cc2c[nH]cn2)NC(=O)[C@@H](N)CO)C(C)C)CSSC[C@@H](C(=O)N[C@@H](Cc2ccccc2)C(=O)O)NC(=O)[C@H](CO)NC1=O` [AstC-L] (H-SHVMCLVNLISCF-OH; disulfide 5-12), the EC50 at AstC-R (setting [1]) is 111 nM; on AstC-R (setting [2]), 63.1 nM.

Consider `CSCC[C@H](NC(=O)[C@H](CO)NC(=O)[C@H](CC(N)=O)NC(=O)[C@H](Cc1ccc(O)cc1)NC(=O)[C@H](Cc1c[nH]cn1)NC(=O)[C@@H](N)CO)C(=O)N[C@H]1CSSC[C@@H](C(=O)N[C@@H](Cc2ccc(O)cc2)C(=O)O)NC(=O)[C@H](C)NC(=O)[C@H](C(C)C)NC(=O)[C@H](C(C)C)NC(=O)[C@H](CC(N)=O)NC(=O)[C@H](Cc2ccccc2)NC(=O)[C@H](CCSC)NC1=O` [AstC-T] (H-SHYNSMCMFNVVACY-OH; disulfide 7-14), for which the 50% effective concentration (EC50) on AstC-R (setting [1]) was 17.7 nM.

`CSCC[C@H](NC(=O)[C@H](CO)NC(=O)[C@H](CO)NC(=O)[C@H](Cc1ccc(O)cc1)NC(=O)[C@H](Cc1c[nH]cn1)NC(=O)[C@@H](N)CO)C(=O)N[C@H]1CSSC[C@@H](C(=O)N[C@@H](Cc2ccc(O)cc2)C(=O)O)NC(=O)[C@H](C)NC(=O)[C@H](C(C)C)NC(=O)[C@H](C(C)C)NC(=O)[C@H](CC(N)=O)NC(=O)[C@H](Cc2ccccc2)NC(=O)[C@H](CCSC)NC1=O` [AstC] (H-SHYSSMCMFNVVACY-OH; disulfide 7-14; N-terminus assumed): at AstC-R, the “Screening: IP1 concentration on AstC-R at 10^–5 M vs 10^–10 M” value (from here on “Screening: IP1 concentration … vs 10^–10 M”) was “significantly increased IP1 concentration” and the “IP1 response of AstC-R, preliminary experiments” value is on record as “none of the receptors responded”. Moreover, the EC50 at AstC-R (setting [1]) was 7.8 nM. In addition, the EC50 on AstC-R (setting [2]) was 6.31 nM. Besides, the “IP1 response of Class-A_GPCR1, preliminary experiments” value in the assay with Class-A_GPCR1 was “none of the receptors responded”.

For the compound “AVIPVSSPEPMEEASALQLLPGKI-NH2 [AstCG-DP, AstC gene-derived peptide predicted from the Aplysia AstC precursor, C-terminally amidated]”, on AstC-R, the “Screening: IP1 concentration … vs 10^–10 M” value is listed as “did not activate AstC-R significantly” and the “IP1 response of AstC-R, preliminary experiments” value was “none of the receptors responded”. The “IP1 response of Class-A_GPCR1, preliminary experiments” value in the assay on Class-A_GPCR1 is on record as “none of the receptors responded”.

As to “MRYMG1CMKKQYNNF1PFPCLRS-NH2 (disulfide) [SPTR, another Aplysia peptide also with a disulfide bridge, reference compound]”, the “Screening: IP1 concentration … vs 10^–10 M” value on AstC-R is “did not activate AstC-R significantly”.

Turning to “pQPVQCLVNIVSCWamide (disulfide) [allatostatin C]”, the EC50 at Platynereis receptor is 1000 nM and 1200 nM.

Values taken from article PMC8786951, “Identification of an allatostatin C signaling system in mollusc Aplysia” (Scientific Reports, 2022).
